Data taken from patent US10597388B2, “Pyridazinone herbicides” (FMC CORPORATION, priority 2014, dated 2020).

Assays:
Type in all cases: in vivo
[1] = system: wheat, spring (spring wheat, Triticum aestivum); assay: Test D controlled growth environment herbicide test, pre- and postemergence
Summary of the method: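 Pre-emergence: seeds sown in silt loam soil were sprayed with compound in a non-phytotoxic solvent mix containing surfactant. Post-emergence: plants at 2 to 18 cm (1- to 4-leaf stage) in peat moss/vermiculite medium got the same formulation. Visual 0–100 rating versus controls after 14 to 21 d.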

[2] = system: panicum, fall (fall panicum, Panicum dichotomiflorum); assay: Test E greenhouse herbicide test, pre- and postemergence; conditions: Postemergence
Source text: (§1) Seeds of plant species selected from corn (Zea mays), soybean (Glycine max), velvetleaf (Abutilon theophrasti), lambsquarters (Chenopodium album), wild poinsettia (Euphorbia heterophylla), pigweed, palmer (palmer pigweed, Amaranthus palmeri), waterhemp (common waterhemp, Amaranthus rudis), surinam grass (Brachiaria decumbens), crabgrass, large (large crabgrass, Digitaria sanguinalis), crabgrass, Brazilian (Brazilian crabgrass, Digitaria horizontalis), panicum, fall (fall panicum, Panicum dichotomiflorum), foxtail, giant (giant foxtail, Setaria faberii), foxtail, green (green foxtail, Setaria viridis), goosegrass (Eleusine indica), johnsongrass (Sorghum halepense), ragweed (common ragweed, Ambrosia elatior), barnyardgrass (Echinochloa crus-galli), sandbur (southem sandbur, Cenchrus echinatus), arrowleaf sida (Sida rhombifolia), Italian ryegrass (Lolium multiflorum), dayflower (Virginia (VA) dayflower, Commelina virginica), field bindweed (Convolvulus arvensis), momingglory (Ipomoea coccinea), nightshade (eastern black nightshade, Solanum ptycanthum), kochia (Kochia scoparia), nutsedge, yellow (yellow nutsedge, Cyperus esculentus), horseweed (Conyza canadensis), and beggarticks (hairy beggarticks, Bidens pilosa), were planted into a silt loam soil and treated preemergence with test chemicals formulated in a non-phytotoxic solvent mixture which included a surfactant.
(§2) At the same time, plants from these crop and weed species and also waterhemp_RES1, (ALS & Triazine resistant common waterhemp, Amaranthus rudis), and waterhemp_RES2, (ALS & HPPD resistant common waterhemp, Amaranthus rudis) were planted in pots containing Redi-Earth® planting medium (Scotts Company, 14111 Scottslawn Road, Marysville, Ohio 43041) comprising spaghnum peat moss, vermiculite, wetting agent and starter nutrients were treated with postemergence applications of test chemicals formulated in the same manner. Plants ranged in height from 2 to 18 cm for postemergence treatments (1- to 4-leaf stage). Treated plants and controls were maintained in a greenhouse for 14 to 21 d, after which time all species were compared to controls and visually evaluated. Plant response ratings, summarized in Table E, are based on a scale of 0 to 100 where 0 is no effect and 100 is complete control. A dash (-) response means no test result.

[3] = system: dayflower (Virginia (VA) dayflower, Commelina virginica); assay: as above; conditions: Postemergence
Source text: as §1, §2

[4] = system: horseweed (Conyza canadensis); assay: as above; conditions: Postemergence
Source text: as §1, §2

[5] = system: field bindweed (Convolvulus arvensis); assay: as above; conditions: Postemergence
Source text: as §1, §2

[6] = system: beggarticks (hairy beggarticks, Bidens pilosa); assay: as above; conditions: Postemergence
Source text: as §1, §2

[7] = system: arrowleaf sida (Sida rhombifolia); assay: as above; conditions: Postemergence
Source text: as §1, §2

soybean (Glycine max) = assay: as above; conditions: Postemergence
Source text: as §1, §2

[8] = Postemergence, 31 g ai/ha, scale 0 to 100 (0 no effect, 100 complete control)
[9] = Postemergence, 125 g ai/ha, visual rating on scale 0 (no effect) to 100 (complete control), 14 to 21 d
[10] = Postemergence, 250 g ai/ha, scale 0 to 100 (0 no effect, 100 complete control)
[11] = Preemergence, 62 g ai/ha, scale 0 to 100 (0 no effect, 100 complete control)
[12] = Preemergence, 125 g ai/ha, scale 0 to 100 (0 no effect, 100 complete control)
[13] = Preemergence, 250 g ai/ha, scale 0 to 100 (0 no effect, 100 complete control)
[14] = postemergence, 62 g ai/ha, scale 0 to 100, 0 no effect, 100 complete control
[15] = 62 g ai/ha, scale 0 to 100 (0 no effect, 100 complete control)
[16] = 125 g ai/ha, scale 0 to 100 (0 no effect, 100 complete control)
[17] = 16 g ai/ha, visual, scale 0 no effect to 100 complete control
[18] = 31 g ai/ha, visual, scale 0 no effect to 100 complete control

## CCOC(=O)Oc1c(C)nn(C)c(=O)c1-c1c(C)ccc2ccccc12 [Compound 73]
[1]; [8]
  Wheat, Spring plant response rating: 45
[1]; [9]
  Plant response rating, Wheat, Spring: 70
[1]; [10]
  Plant response rating, Wheat, Spring: 85
[1]; Preemergence, 31 g ai/ha
  Plant response rating (scale of 0 to 100), Wheat, Spring: 15
[1]; [11]
  Plant response rating, Wheat, Spring: 55
[1]; [12]
  Plant response rating, Wheat, Spring: 70
[1]; [13]
  Plant response rating, Wheat, Spring: 85
[1]; [14]
  Plant response rating, Wheat, Spring: 55

## Cc1cc(C)c2sc(C)c(-c3c(OC(=O)OC(C)C)c(C)nn(C)c3=O)c2c1 [Compound 67]
[1]; [8]
  Wheat, Spring plant response rating: 0
[1]; [9]
  Plant response rating, Wheat, Spring: 0
[1]; [10]
  Plant response rating, Wheat, Spring: 5
[1]; Preemergence, 31 g ai/ha
  Plant response rating (scale of 0 to 100), Wheat, Spring: 0
[1]; [11]
  Plant response rating, Wheat, Spring: 0
[1]; [12]
  Plant response rating, Wheat, Spring: 0
[1]; [13]
  Plant response rating, Wheat, Spring: 10
[1]; [14]
  Plant response rating, Wheat, Spring: 0

## CC(=O)Oc1c(Br)nn(C)c(=O)c1-c1c(C)ccc2ccccc12 [Compound 129]
[1]; [8]
  Wheat, Spring plant response rating: 25
[1]; [9]
  Plant response rating, Wheat, Spring: 50
[1]; [10]
  Plant response rating, Wheat, Spring: 70
[1]; Preemergence, 31 g ai/ha
  Plant response rating (scale of 0 to 100), Wheat, Spring: 25
[1]; Preemergence, 62 g ai/ha
  Plant response rating (scale of 0 to 100), Wheat, Spring: 50
[1]; [12]
  Plant response rating, Wheat, Spring: 60
[1]; [13]
  Plant response rating, Wheat, Spring: 75
[1]; [14]
  Plant response rating, Wheat, Spring: 35

## CC(=O)Oc1c(C)nn(C)c(=O)c1-c1ccc(F)c2ccccc12 [Compound 90]
[2]; [15]
  Plant response rating, Panicum, Fall: 60
[2]; [16]
  Plant response rating, Panicum, Fall: 70
[2]; [17]
  Plant response rating, Panicum, Fall: 40
[2]; [18]
  Plant response rating, Panicum, Fall: 60
[3]; [15]
  Plant response rating, Dayflower, VA: 80
[3]; [16]
  Plant response rating, Dayflower, VA: 90
[3]; [17]
  Plant response rating, Dayflower, VA: 40
[3]; [18]
  Plant response rating, Dayflower, VA: 60
[4]; [15]
  Plant response rating, Horseweed: 75
[4]; [16]
  Plant response rating, Horseweed: 70
[4]; [17]
  Plant response rating, Horseweed: 50
[4]; [18]
  Plant response rating, Horseweed: 70
[5]; [15]
  Plant response rating, Field Bindweed: 90
[5]; [16]
  Plant response rating, Field Bindweed: 100
[5]; [17]
  Plant response rating, Field Bindweed: 60
[5]; [18]
  Plant response rating, Field Bindweed: 80
[6]; [15]
  Plant response rating, Beggarticks: 98
[6]; [16]
  Plant response rating, Beggarticks: 100
[6]; [17]
  Plant response rating, Beggarticks: 85
[6]; [18]
  Plant response rating, Beggarticks: 90
[7]; [15]
  Plant response rating, Arrowleaf Sida: 90
[7]; [16]
  Plant response rating, Arrowleaf Sida: 90
[7]; [17]
  Plant response rating, Arrowleaf Sida: 70
[7]; [18]
  Plant response rating, Arrowleaf Sida: 80
Soybean (Glycine max); [16]
  Plant response rating, Soybean: 60
Soybean (Glycine max); [17]
  Plant response rating, Soybean: 20
Soybean (Glycine max); [18]
  Plant response rating, Soybean: 30
[1]; [8]
  Wheat, Spring plant response rating: 25
[1]; [9]
  Plant response rating, Wheat, Spring: 40
[1]; [10]
  Plant response rating, Wheat, Spring: 50
[1]; Preemergence, 31 g ai/ha
  Plant response rating (scale of 0 to 100), Wheat, Spring: 20
[1]; Preemergence, 62 g ai/ha
  Plant response rating (scale of 0 to 100), Wheat, Spring: 35
[1]; [12]
  Plant response rating, Wheat, Spring: 60
[1]; [13]
  Plant response rating, Wheat, Spring: 70
[1]; [14]
  Plant response rating, Wheat, Spring: 35

## COc1nn(C)c(=O)c(-c2c(C)ccc3ccccc23)c1O [Compound 54]
[1]; [8]
  Wheat, Spring plant response rating: 0
[1]; [9]
  Plant response rating, Wheat, Spring: 15
[1]; [10]
  Plant response rating, Wheat, Spring: 25
[1]; Preemergence, 31 g ai/ha
  Plant response rating (scale of 0 to 100), Wheat, Spring: 0
[1]; [11]
  Plant response rating, Wheat, Spring: 0
[1]; [12]
  Plant response rating, Wheat, Spring: 0
[1]; [13]
  Plant response rating, Wheat, Spring: 45
[1]; [14]
  Plant response rating, Wheat, Spring: 0
